The structures appear in SMILES notation.

DGKα, sequence (P23743 other isoform, or with tags, fused parts or gaps): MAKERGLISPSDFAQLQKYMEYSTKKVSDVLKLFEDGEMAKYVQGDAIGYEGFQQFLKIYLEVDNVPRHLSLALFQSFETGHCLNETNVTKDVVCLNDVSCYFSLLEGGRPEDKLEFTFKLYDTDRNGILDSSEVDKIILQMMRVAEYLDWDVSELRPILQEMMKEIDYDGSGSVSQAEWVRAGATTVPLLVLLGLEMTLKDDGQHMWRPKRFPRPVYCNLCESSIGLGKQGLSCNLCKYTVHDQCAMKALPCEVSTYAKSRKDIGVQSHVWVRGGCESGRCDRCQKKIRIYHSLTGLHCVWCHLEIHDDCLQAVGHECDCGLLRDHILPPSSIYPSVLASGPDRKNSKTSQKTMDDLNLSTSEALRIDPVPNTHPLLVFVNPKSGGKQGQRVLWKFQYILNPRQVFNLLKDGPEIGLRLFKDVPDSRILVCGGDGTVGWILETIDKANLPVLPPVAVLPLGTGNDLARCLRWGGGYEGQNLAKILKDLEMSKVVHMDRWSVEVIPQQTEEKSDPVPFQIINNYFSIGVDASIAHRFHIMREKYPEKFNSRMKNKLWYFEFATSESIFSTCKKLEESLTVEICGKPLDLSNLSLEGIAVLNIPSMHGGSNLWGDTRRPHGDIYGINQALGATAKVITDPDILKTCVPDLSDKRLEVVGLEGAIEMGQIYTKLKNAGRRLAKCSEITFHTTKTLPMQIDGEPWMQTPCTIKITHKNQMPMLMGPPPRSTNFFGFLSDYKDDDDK

This test concerns the target DGKα (Homo sapiens (Human), UniProt P23743). As to the kind of experiment: Human DGKα kinase activity inhibition assay (ADP-Glo). It counts as biochemical. The note with it: recombinant full-length human DGKα, 55 μM ATP, 7 μM 1,2-dioleoyl-sn-glycerol, read-out: IC50 values of examples in in vitro human DGKa kinase activity inhibition assays. Here is the method: Human DGKα Kinase Activity Inhibition Assay
Human DGKα inhibitory activity of compounds of the present invention was quantified employing the human DGKα kinase activity assay as described in the following paragraphs. In essence, the enzyme activity was measured by quantification of the adenosine-di-phosphate (ADP) generated as a co-product of the enzyme reaction via the “ADP-Glo™ Kinase Assay” kit from the company Promega. This detection system works as follows: In a first step the ATP not consumed in the kinase reaction is quantitatively converted to cAMP employing an adenylate cyclase (“ADP-Glo-reagent”), then the adenylate cyclase is stopped and the ADP generated in the kinase reaction converted to ATP, which subsequently generates in a luciferase-based reaction a glow-luminescence signal (“Kinase Detection Reagent”).
C-terminally FLAG-tagged, recombinant full-length human DGKα (expressed in baculovirus infected insect cells, purified using anti-Flag pulldown and size exclusion chromatography as described below, DGKa_hu_1) was used as enzyme. As substrate for the kinase 1,2-dioleoyl-sn-glycerol, reconstituted in octyl-β-D-glucopyranoside micelles, was used. […] Then 35 volumes of 50 mM MOPS buffer (pH 7.4) were added to yield a solution of 0.28 mM 1,2 dioleoyl-sn-glycerol and 200 mM […], which was aliquoted, flash-frozen in liquid nitrogen, and stored at −20° C. until use.
For the assay 50 nl of a 100-fold concentrated solution of the test compound in dimethyl sulfoxide (DMSO, Sigma) was pipetted into either a white 1536-well or a white low-volume 384-well microtiter plate (both Greiner Bio-One, Frickenhausen, Germany).
What is called IC50 is the concentration that inhibits the measured activity by half. For the molecule `Cc1ccc2oc(C3CCN(c4c(C#N)c(=O)n(C)c5ccc(C6CCC6(C)C)cc45)CC3)nc2c1` (centres unmarked) [Example 410, 6-[2,2-dimethylcyclobutyl]-1-methyl-4-[4-(5-methyl-1,3-benzoxazol-2-yl)piperidin-1-yl]-2-oxo-1,2-dihydroquinoline-3-carbonitrile], the IC50 turned out to be 51 nM.
Regarding `Cn1c(=O)c(C#N)c(N2CCC(c3nc4ccccc4s3)CC2)c2ccc(Br)cc21` [Example 33, 4-[4-(1,3-benzothiazol-2-yl)piperidin-1-yl]-7-bromo-1-methyl-2-oxo-1,2-dihydroquinoline-3-carbonitrile], the half-maximal inhibitory concentration (IC50) was determined as 6.2 nM.
On to `COCc1ccc2nc(C3(C)CCN(c4c(C#N)c(=O)n(C)c5ccccc45)CC3)oc2c1` [Example 392, 4-{4-[6-(methoxymethyl)-1,3-benzoxazol-2-yl]-4-methylpiperidin-1-yl}-1-methyl-2-oxo-1,2-dihydroquinoline-3-carbonitrile], for which the IC50 was 6.7 nM.
The figure for `CNC(=O)c1c(N2CCC(c3nc4cc(C)ccc4o3)CC2)c2ccccc2n(C)c1=O` [Example 448, N,1-dimethyl-4-[4-(5-methyl-1,3-benzoxazol-2-yl)piperidin-1-yl]-2-oxo-1,2-dihydroquinoline-3-carboxamide] is 27 nM; for `Cc1ccccc1C1CCN(c2c(C#N)c(=O)n(C)c3ccccc23)CC1` [Example 82, 1-methyl-4-[4-(2-methylphenyl)piperidin-1-yl]-2-oxo-1,2-dihydroquinoline-3-carbonitrile] it is 11 nM.
The figure for `Cc1ccc2c(c1)c(N1CCC(c3nc4cc(Cl)ccc4o3)CC1)c(C(N)=O)c(=O)n2C` [Example 201, 4-[4-(5-chloro-1,3-benzoxazol-2-yl)piperidin-1-yl]-1,6-dimethyl-2-oxo-1,2-dihydroquinoline-3-carboxamide] is 1.1 nM; for `Cc1ccc2oc(C3(C)CCN(c4c(C#N)c(=O)n(C)c5cc(C)ccc45)CC3)nc2c1` [Example 220, 1,7-dimethyl-4-[4-methyl-4-(5-methyl-1,3-benzoxazol-2-yl)piperidin-1-yl]-2-oxo-1,2-dihydroquinoline-3-carbonitrile] it is 1.7 nM.
The figure for `Cc1c(C#N)cccc1C1CCN(c2c(C#N)c(=O)n(C)c3ccccc23)CC1` [Example 64, 4-[4-(3-cyano-2-methylphenyl)piperidin-1-yl]-1-methyl-2-oxo-1,2-dihydroquinoline-3-carbonitrile] is 73 nM; for `Cc1ccc2c(c1)c(N1CCCC(c3nc4ccccc4o3)CC1)c(C#N)c(=O)n2C` (centres unmarked) [Example 204, 4-[4-(1,3-benzoxazol-2-yl)azepan-1-yl]-1,6-dimethyl-2-oxo-1,2-dihydroquinoline-3-carbonitrile] it is 7 nM; for `Cc1ccc2oc(C3(C)CCN(c4c(C#N)c(=O)n(C)c5c(Br)cccc45)CC3)nc2c1C(F)(F)F` [Example 233, 8-bromo-1-methyl-4-{4-methyl-4-[5-methyl-4-(trifluoromethyl)-1,3-benzoxazol-2-yl]piperidin-1-yl}-2-oxo-1,2-dihydroquinoline-3-carbonitrile] it is 1270 nM.
Turning to `Cc1ccc2oc(C3(C)CCN(c4c(C#N)c(=O)n(C)c5ccc(OC6COC6)cc45)CC3)nc2c1` [Example 267, 1-methyl-4-[4-methyl-4-(5-methyl-1,3-benzoxazol-2-yl)piperidin-1-yl]-6-[(oxetan-3-yl)oxy]-2-oxo-1,2-dihydroquinoline-3-carbonitrile], the IC50 is 64 nM.
Consider `CN1C(=O)C(C)(C)c2cc(C3CCN(c4c(C#N)c(=O)n(C)c5ccccc45)CC3)ccc21` [Example 358, 1-methyl-2-oxo-4-[4-(1,3,3-trimethyl-2-oxo-2,3-dihydro-1H-indol-5-yl)piperidin-1-yl]-1,2-dihydroquinoline-3-carbonitrile], for which the 50% inhibitory concentration (IC50) was 44 nM.
In the case of `Cc1ccc2oc(C3CCN(c4c(C(N)=O)c(=O)n(C)c5ccc(OCC6CC6)cc45)CC3)nc2c1` [Example 505, 6-(cyclopropylmethoxy)-1-methyl-4-[4-(5-methyl-1,3-benzoxazol-2-yl)piperidin-1-yl]-2-oxo-1,2-dihydroquinoline-3-carboxamide], the IC50 is 269 nM.
In the case of `Cc1ccc2oc(C3(C)CCN(c4c(C#N)c(=O)n(C)c5c(C)cccc45)CC3)nc2c1` [Example 263, 1,8-dimethyl-4-[4-methyl-4-(5-methyl-1,3-benzoxazol-2-yl)piperidin-1-yl]-2-oxo-1,2-dihydroquinoline-3-carbonitrile], the IC50 stood at 42 nM.
For the molecule `Cn1c(=O)c(C#N)c(N2CCC(c3nc4ccc(C5CC5)cc4o3)CC2)c2ccccc21` [Example 395, 4-[4-(6-cyclopropyl-1,3-benzoxazol-2-yl)piperidin-1-yl]-1-methyl-2-oxo-1,2-dihydroquinoline-3-carbonitrile], the IC50 came to 2.4 nM.
The result for `COc1ccc2c(N3CCC(c4ccccc4)CC3)c(C#N)c(=O)n(C)c2c1` [Example 256, 7-methoxy-1-methyl-2-oxo-4-(4-phenylpiperidin-1-yl)-1,2-dihydroquinoline-3-carbonitrile] reads 25 nM; that for `Cc1ccc2oc(C3(C)CCN(c4c(C#N)c(=O)n(C)c5c(Cl)cccc45)CC3)nc2c1` [Example 231, 8-chloro-1-methyl-4-[4-methyl-4-(5-methyl-1,3-benzoxazol-2-yl)piperidin-1-yl]-2-oxo-1,2-dihydroquinoline-3-carbonitrile], 108 nM; that for `COCc1ccc2nc(C3(C)CCN(c4c(C(N)=O)c(=O)n(C)c5ccccc45)CC3)oc2c1` [Example 491, 4-{4-[6-(methoxymethyl)-1,3-benzoxazol-2-yl]-4-methylpiperidin-1-yl}-1-methyl-2-oxo-1,2-dihydroquinoline-3-carboxamide], 9.1 nM.
On to `Cn1c(=O)c(C#N)c(N2CCC(c3ccc4ccncc4c3)CC2)c2ccccc21` [Example 74], for which the IC50 is 48 nM.
The figure for `Cc1ccc2oc(C3CCN(c4c(C(N)=O)c(=O)n(C)c5ccc(C6CCC6)cc45)CC3)nc2c1` [Example 506, 6-cyclobutyl-1-methyl-4-[4-(5-methyl-1,3-benzoxazol-2-yl)piperidin-1-yl]-2-oxo-1,2-dihydroquinoline-3-carboxamide] is 574 nM; for `Cc1ccc2oc(C3(C)CCN(c4c(C#N)c(=O)n(C)c5ccc(CC6COC6)cc45)CC3)nc2c1` [Example 286, 1-methyl-4-[4-methyl-4-(5-methyl-1,3-benzoxazol-2-yl)piperidin-1-yl]-6-[(oxetan-3-yl)methyl]-2-oxo-1,2-dihydroquinoline-3-carbonitrile] it is 374 nM; for `CCn1c(=O)c(C#N)c(N2CCC(c3ccc(Cl)cc3)CC2)c2ccccc21` [Example 333, 4-[4-(4-chlorophenyl)piperidin-1-yl]-1-ethyl-2-oxo-1,2-dihydroquinoline-3-carbonitrile] it is 172 nM.
The figure for `Cc1cc2c(N3CCC(c4cnn(-c5ccccc5C)c4)CC3)c(C#N)c(=O)n(C)c2cc1Br` [Example 579, 7-bromo-1,6-dimethyl-4-{4-[1-(2-methylphenyl)-1H-pyrazol-4-yl]piperidin-1-yl}-2-oxo-1,2-dihydroquinoline-3-carbonitrile] is 61 nM; for `CC(C)Oc1ccc(C2CCN(c3c(C(N)=O)c(=O)n(C)c4ccccc34)CC2)cc1` [Example 102, 1-methyl-2-oxo-4-(4-{4-[(propan-2-yl)oxy]phenyl}piperidin-1-yl)-1,2-dihydroquinoline-3-carboxamide] it is 0.3 nM.
`Cn1c(C2CCN(c3c(C#N)c(=O)n(C)c4ccccc34)CC2)nc2ccccc21` [Example 147, 1-methyl-4-[4-(1-methyl-1H-benzimidazol-2-yl)piperidin-1-yl]-2-oxo-1,2-dihydroquinoline-3-carbonitrile]: the IC50 was found to be 358 nM.
The result for `Cn1c(=O)c(C#N)c(N2CCC(c3cccc(C4CC4)c3)CC2)c2ccccc21` [Example 45, 4-[4-(3-cyclopropylphenyl)piperidin-1-yl]-1-methyl-2-oxo-1,2-dihydroquinoline-3-carbonitrile] reads 2.1 nM.
The result for `COc1ccc2c(c1)c(N1CCC(c3nc(-c4ccccc4C)no3)CC1)c(C(N)=O)c(=O)n2C` [Example 522, 6-methoxy-1-methyl-4-{4-[3-(2-methylphenyl)-1,2,4-oxadiazol-5-yl]piperidin-1-yl}-2-oxo-1,2-dihydroquinoline-3-carboxamide] reads 44 nM; that for `COc1ccc2c(c1)c(N1CCC(c3nc4cc(C)ccc4o3)CC1)c(C(N)=O)c(=O)n2C` [Example 501, 6-methoxy-1-methyl-4-[4-(5-methyl-1,3-benzoxazol-2-yl)piperidin-1-yl]-2-oxo-1,2-dihydroquinoline-3-carboxamide], 21 nM; that for `Cn1c(=O)c(C#N)c(N2CCC(c3ccc4cc(C(F)F)cnc4c3)CC2)c2ccccc21` [Example 378, 4-{4-[3-(difluoromethyl)quinolin-7-yl]piperidin-1-yl}-1-methyl-2-oxo-1,2-dihydroquinoline-3-carbonitrile], 23 nM.

For the origin of these results see patent publication US11998539B2, “Substituted aminoquinolones as DGKalpha inhibitors for immune activation” (Bayer Aktiengesellschaft, priority 2019, dated 2024).
